# Values quoted from earlier work, collected in US20060189608A1, “Methods for treating ocular angiogenesis, retinal edema, retinal ischemia, and diabetic retinopathy using selective RTK inhibitors” (Alcon, Inc., priority 2005, published 2006).
# How the values were obtained:
# [1] = test system: preretinal and choroidal NV; details: oral administration, mice; cited from earlier work
# [2] = test system: diabetic macular edema; details: human patients with diabetic macular edema, cited from earlier work
structure (smiles),measurement,setting,value
CO[C@@H]1[C@H](N(C)C(=O)c2ccccc2)C[C@H]2O[C@]1(C)n1c3ccccc3c3c4c(c5c6ccccc6n2c5c31)C(=O)NC4 [PKC-412],effect on preretinal and choroidal NV,[1],inhibited both preretinal and choroidal NV in mice
same,macular edema and visual acuity,[2]; pilot results,a reduction in macular edema and an improvement in visual acuity
same,liver toxicity,[2],concerns related to liver toxicity halted the clinical trials
